Results as given in patent US11292791B2 (priority 2017, dated 2022).

Molecular target: BRD4 (Homo sapiens (Human), UniProt O60885)
Details: read-out: BRD4 IC50 (μM gmean)

SMILES | IC50 [µM]
COC(=O)N1c2ccc3c(nc(Cc4cccc(C)c4)n3[C@@H]3CCC[C@@H](C(=O)O)C3)c2CC[C@@H]1C [Example 718] | 1 to 1000
COC(=O)N1c2ccc3c(nc(C(CO)c4ccccc4)n3C3CCC(C(=O)O)CC3)c2CC[C@@H]1C (stereo partly drawn) [Example 812] | 1 to 1000
COC(=O)N1c2ccc3c(nc(CC(C(=O)O)c4ccc(C)cc4)n3C3COCC(F)(F)C3)c2CC[C@@H]1C (stereo partly drawn) [Example 700] | 1 to 1000
COC(=O)N1c2ccc3c(nc(Cc4ccccc4)n3C[C@H]3CCCNC3)c2CC[C@@H]1C [Example 87] | 1 to 1000
COC(=O)N1c2ccc3c(nc(Cc4ccccc4)n3[C@H]3CCC34CCNCC4)c2CC[C@@H]1C [Example 111, methyl (S)-2-benzyl-7-methyl-3-((S)-7-azaspiro[3.5]nonan-1-yl)-3,7,8,9-tetrahydro-6H-imidazo[4,5-f]quinoline-6-carboxylate] | 1 to 1000
COC(=O)N1c2ccc3c(nc(CCn4ccccc4=O)n3CCNCc3cnn(C)c3)c2CC[C@@H]1C [Example 315] | 1 to 1000
COC(=O)N1c2ccc3c(nc([C@@H](CO)c4ccccc4)n3C3CCOCC3)c2CC[C@@H]1C [Example 47, methyl (7S)-2-[(1S)-2-hydroxy-1-phenylethyl]-7-methyl-3-(oxan-4-yl)-3H,6H,7H,8H,9H-imidazo[4,5-f]quinoline-6-carboxylate] | 1 to 1000
COC(=O)N1c2ccc3c(nc(CC(C(=O)O)c4ccc(C(F)F)cc4)n3C3CCCOC3)c2CC[C@@H]1C (stereo partly drawn) [Example 901] | 1 to 1000
COC(=O)N1c2ccc3c(nc(C(C)Cc4ccc(F)c(F)c4)n3C3CCCC(C(=O)O)C3)c2CC[C@@H]1C (stereo partly drawn) [Example 720] | 1 to 1000
COC(=O)N1c2ccc3c(nc([C@H](C)c4ccccc4)n3C3CCNCC3)c2CC[C@@H]1C [Example 58, methyl (S)-7-methyl-2-((R)-1-phenylethyl)-3-(piperidin-4-yl)-3,7,8,9-tetrahydro-6H-imidazo[4,5-f]quinoline-6-carboxylate] | 1 to 1000
COC(=O)N1c2ccc3c(nc(CCc4nc(C)co4)n3[C@H]3CC[C@H](C(=O)O)CC3)c2CC[C@@H]1C [Example 36] | 1 to 1000
COC(=O)N1c2ccc3c(nc(Cc4cccc(OC5CC5)n4)n3[C@@H]3CCC[C@@H](C(=O)O)C3)c2CC[C@@H]1C [Example 695] | 1 to 1000
COC(=O)N1c2ccc3c(nc(C(O)c4cc5ccoc5cn4)n3C3CCCC(C(=O)O)C3)c2CC[C@@H]1C (stereo partly drawn) [Example 589] | 1 to 1000
COC(=O)N1c2ccc3c(nc(CCn4ccccc4=O)n3CC(=O)NC3CCOCC3)c2CC[C@@H]1C [Example 386] | 1 to 1000
COC(=O)N1c2ccc3c(nc(Cc4ccccc4)n3[C@@H]3CC[C@@H](CO)OC3)c2CC[C@@H]1C [Example 66, methyl (S)-2-benzyl-3-((3R,6S)-6-(hydroxymethyl)tetrahydro-2H-pyran-3-yl)-7-methyl-3,7,8,9-tetrahydro-6H-imidazo[4,5-f]quinoline-6-carboxylate] | 1 to 1000
COC(=O)N1c2ccc3c(nc(C[C@@H](C(=O)O)c4ccccc4)n3CCN(C)C)c2CC[C@@H]1C [Example 137, (R)-3-((S)-3-(2-(dimethylamino)ethyl)-6-(methoxycarbonyl)-7-methyl-6,7,8,9-tetrahydro-3H-imidazo[4,5-f]quinolin-2-yl)-2-phenylpropanoic Acid] | 1 to 1000
COC(=O)N1c2ccc3c(nc(C[C@@H](C(=O)O)c4ccccc4)n3C)c2CC[C@@H]1C [Example 136, (R)-3-((S)-6-(methoxycarbonyl)-3,7-dimethyl-6,7,8,9-tetrahydro-3H-imidazo[4,5-f]quinolin-2-yl)-2-phenylpropanoic Acid] | 1 to 1000
COC(=O)N1c2ccc3c(nc(Cc4cc(C(F)(F)F)cnn4)n3[C@@H]3CCC[C@@H](C(=O)O)C3)c2CC[C@@H]1C [Example 687] | 1 to 1000
COC(=O)N1c2ccc3c(nc(CCn4ccccc4=O)n3CC(=O)NCC3CCOCC3)c2CC[C@@H]1C [Example 385] | 1 to 1000
COC(=O)N1c2ccc3c(nc(CCn4cccn4)n3CCN3CCC(CO)CC3)c2CC[C@@H]1C [Example 299] | 1 to 1000

SMILES | IC50 [µM]
COC(=O)N1c2ccc3c(nc(CCn4cccn4)n3CC(=O)NCc3ccncn3)c2CC[C@@H]1C [Example 336] | 1 to 1000
COC(=O)N1c2ccc3c(nc(C(O)c4ccc(F)c(F)c4)n3C3CCCC(C(=O)O)C3)c2CC[C@@H]1C (stereo partly drawn) [Example 432] | 1 to 1000
COC(=O)N1c2ccc3c(nc(Cc4ccccc4)n3C3CC4(CNC4)C3)c2CC[C@@H]1C [Example 94] | 1 to 1000
COC(=O)N1c2ccc3c(nc(C(C)Oc4cnccn4)n3C3CCC(C(=O)O)CC3)c2CC[C@@H]1C (stereo partly drawn) [Example 887] | 1 to 1000
COC(=O)N1c2ccc3c(nc(C(C)(C)c4ccccc4)n3[C@H]3CC[C@H](C(=O)O)CC3)c2CC[C@@H]1C [Example 646] | 1 to 1000
COC(=O)N1c2ccc3c(nc(S(=O)(=O)Cc4ccccc4)n3[C@H]3CC[C@H](C(=O)O)CC3)c2CC[C@@H]1C [Example 882] | 1 to 1000
COC(=O)N1c2ccc3c(nc(C4(n5cc(Cl)cn5)CC4)n3[C@H]3CC[C@H](C(=O)O)CC3)c2CC[C@@H]1C [Example 617] | 1 to 1000
COC(=O)N1c2ccc3c(nc(C(C)Cn4cccn4)n3C3CCS(=O)(=O)CC3)c2CC[C@@H]1C (stereo partly drawn) [Example 946] | 1 to 1000
COC(=O)N1c2ccc3c(nc(C(C)Cn4cccn4)n3C3CCCC(C(=O)O)C3)c2CC[C@@H]1C (stereo partly drawn) [Example 583] | 1 to 1000
COC(=O)N1c2ccc3c(nc(CCc4ccccc4C(=O)O)n3C3CCCCC3)c2CC[C@@H]1C [Example 521] | 1 to 1000
COC(=O)N1c2ccc3c(nc(C(=O)NC4CCCC4)n3[C@@H]3CCC[C@@H](C(=O)O)C3)c2CC[C@@H]1C [Example 922] | 1 to 1000
COC(=O)N1c2ccc3c(nc(CCn4cccn4)n3CC(=O)NCc3cnco3)c2CC[C@@H]1C [Example 342] | 1 to 1000
COC(=O)N1c2ccc3c(nc(CCn4ccccc4=O)n3CC(=O)NC[C@H]3CCCO3)c2CC[C@@H]1C [Example 376] | 1 to 1000
COC(=O)N1c2ccc3c(nc(Cc4cccc(OC(C)C)c4)n3C3CC4(CNC4)C3)c2CC[C@@H]1C [Example 99] | 1 to 1000
COC(=O)N1c2ccc3c(nc(Cc4ccc(C)cc4)n3[C@@H]3CCC[C@@H](C(=O)O)C3)c2CC[C@@H]1C [Example 549] | 1 to 1000
COC(=O)N1c2ccc3c(nc(Cc4ccccc4)n3[C@H]3CC[C@](C)(C(=O)O)CC3)c2CC[C@@H]1C [Example 25] | 1 to 1000
COC(=O)N1c2ccc3c(nc(CCn4ccccc4=O)n3CC(=O)N3CCC(O)CC3)c2CC[C@@H]1C [Example 381] | 1 to 1000
COC(=O)N1c2ccc3c(nc(Cc4cnc(Cl)cn4)n3[C@@H]3CCC[C@@H](C(=O)O)C3)c2CC[C@@H]1C [Example 669] | 1 to 1000
COC(=O)N1c2ccc3c(nc(C4(c5cncc(C)n5)CC4)n3[C@@H]3CCC[C@@H](C(=O)O)C3)c2CC[C@@H]1C [Example 704] | 1 to 1000
COC(=O)N1c2ccc3c(nc(CCn4ccccc4=O)n3CC(=O)NCC(=O)N3CCCC3)c2CC[C@@H]1C [Example 383] | 1 to 1000

SMILES | IC50 [µM]
COC(=O)[C@@H]1CCC[C@@H](n2c(Cc3ccccc3)nc3c4c(ccc32)N(C(=O)OC)[C@@H](C)CC4)C1 [Example 840] | 1 to 1000
COC(=O)N1c2ccc3c(nc(CN4CCC(C)(C)CC4=O)n3[C@@H]3CCC[C@@H](C(=O)O)C3)c2CC[C@@H]1C [Example 696] | 1 to 1000
C/C=C(/Oc1ccccc1)c1nc2c3c(ccc2n1[C@H]1CC[C@H](C(=O)O)CC1)N(C(=O)OC)[C@@H](C)CC3 [Example 821] | 1 to 1000
COC(=O)N1c2ccc3c(nc(C4(Cn5cccn5)CC4)n3[C@H]3CC[C@H](C(=O)O)CC3)c2CC[C@@H]1C [Example 710] | 1 to 1000
COC(=O)N1c2ccc3c(nc(Cc4cncc(Cl)n4)n3[C@@H]3CCC[C@@H](C(=O)O)C3)c2CC[C@@H]1C [Example 645] | 1 to 1000
COC(=O)N1c2ccc3c(nc(CCn4cccn4)n3CCN3CCNCC3)c2CC[C@@H]1C [Example 935] | 1 to 1000
COC(=O)N1c2ccc3c(nc(CCn4cccn4)n3CC(=O)NCC3(O)CCC3)c2CC[C@@H]1C [Example 362] | 1 to 1000
COC(=O)N1c2ccc3c(nc(CCn4cccn4)n3CC(=O)NC3COC3)c2CC[C@@H]1C [Example 365] | 1 to 1000
COC(=O)N1c2ccc3c(nc(C(C)Cn4cc(Cl)cn4)n3C3CCC(C(=O)O)CC3)c2CC[C@@H]1C (stereo partly drawn) [Example 551] | 1 to 1000
COC(=O)N1c2ccc3c(nc(CC(C(=O)O)c4cccc(C)c4)n3C3CCCOC3)c2CC[C@@H]1C (stereo partly drawn) [Example 644] | 1 to 1000
COC(=O)N1c2ccc3c(nc(CCn4cccn4)n3CC(=O)NCc3cc(C)no3)c2CC[C@@H]1C [Example 363] | 1 to 1000
COC(=O)N1c2ccc3c(nc(C(c4ccccc4)[S+](C)[O-])n3C3CCC(C(=O)O)CC3)c2CC[C@@H]1C (stereo partly drawn) [Example 725] | 1 to 1000
COC(=O)N1c2ccc3c(nc(CCn4ccccc4=O)n3CCNC[C@H]3CCCO3)c2CC[C@@H]1C [Example 319] | 1 to 1000
COC(=O)N1c2ccc3c(nc(Cc4ccccc4)n3C[C@@H]3CCCNC3)c2CC[C@@H]1C [Example 86] | 1 to 1000
COC(=O)N1c2ccc3c(nc(N(C)c4ccc(C#N)cc4)n3[C@@H]3CCC[C@@H](C(=O)O)C3)c2CC[C@@H]1C [Example 681] | 1 to 1000
COC(=O)N1c2ccc3c(nc(C(C)Cn4cc(Cl)cn4)n3C3CCS(=O)(=O)C3)c2CC[C@@H]1C (stereo partly drawn) [Example 709] | 1 to 1000
COC(=O)N1c2ccc3c(nc(CCc4ccccc4)n3C3CCNCC3)c2CC[C@@H]1C [Example 104] | 1 to 1000
COC(=O)N1c2ccc3[nH]c(CCc4ccccc4)nc3c2CC[C@@H]1C [Example 7, methyl (S)-7-methyl-2-phenethyl-3,7,8,9-tetrahydro-6H-imidazo[4,5-f]quinoline-6-carboxylate] | 1 to 1000
COC(=O)N1c2ccc3c(nc([C@H](CO)c4ccccc4)n3C3CCOCC3)c2CC[C@@H]1C [Example 46, methyl (7S)-2-[(1R)-2-hydroxy-1-phenylethyl]-7-methyl-3-(oxan-4-yl)-3H,6H,7H,8H,9H-imidazo[4,5-f]quinoline-6-carboxylate] | 1 to 1000
COC(=O)N1c2ccc3c(nc(CC(C(=O)O)c4ccccc4)n3C3CCCC(OC)C3)c2CC[C@@H]1C (stereo partly drawn) [Example 757] | 1 to 1000
